Measurements as given in article PMC11567856, “A novel peptide‐based tau aggregation inhibitor as a potential therapeutic for Alzheimer's disease and other tauopathies” (Alzheimer's & Dementia, 2024).
Where a SMILES comes first, the peptide text is derived from it. [ ]: non-standard residue; d: D form.

Experiments:
[1] = target: T1, Tau^Δ1‐250 (Homo sapiens, UniProt P10636); assay: ThT fluorescence, heparin-induced aggregation of Tau^Δ1‐250; format: biochemical
T1 construct: Tau^Δ1‐250 (an aggregate prone truncated version of full‐length Tau); made in house; host or cells: E. coli BL21(DE3)
Method: (§1) Fluorescence was measured (λex = 442 nm, λem = 483 nm), and data were normalized. […] The addition of inhibitor to the growth phase was controlled by adding an equivalent volume of buffer alone.
Experiments were conducted in triplicate and error bars were reported as standard deviation. Statistical analysis: p > 0.05, *p ≤ 0.05, **p ≤ 0.01, ***p ≤ 0.001.

[2] = system: Tau repeat domain (RD) with the P301S mutation fused to mCer and mClo, HEK293 biosensor cells; assay: Tau fibril seeding in FRET Tau biosensor cells; format: cell-based, human
Method: Tau biosensor cells culture: RD P301S Tau biosensor cells have been previously described,[45] and in this case v2L cells were used. Cells were cultured in 10 cm dishes containing Dulbecco's Modified Eagle's Medium (DMEM) (Gibco) enriched with 10% FBS (HyClone), 1% penicillin/streptomycin (Gibco), and 1% GlutaMAX (Gibco) at 37°C with 5% CO2 in a humidified incubator.
5 µM of tau fibrils (monomer equivalent) were incubated in PBS with peptide RI‐AG03 or scramble (0–500 µM) at 300 rpm agitation at 4°C for 16 h. The reaction was stopped by flash freezing in liquid nitrogen and stored at –20°C. Tau biosensor cells were plated at a density of 30,000 cells in 120 µL of media per well in a 96‐well plate. After 18 h, using Lipofectamine 2000 cells were transduced with 10 nM of treated fibrils that had been briefly sonicated for 30 s at 65 Amp (QSonica). Lipofectamine complexes were formed in 30 µL consisting of 14.17 µL Opti‐MEM (Gibco), 15 µL of treated fibrils diluted in PBS, and 0.83 µL lipofectamine 2000 (Invitrogen), bringing the total volume to 150 µL. […] Aggregates in Tau biosensors (10,000 minimum) were quantified by FRET flow cytometry in a LSRFortessa SORP (BD Biosciences). To detect the cerulean signal, cells were excited with a 405 nm laser, and fluorescence was captured at […]. For clover signal, cells were excited with a 488 nm laser and fluorescence was detected at 525/50 nm. Flow cytometry data were analyzed using a gating strategy previously described.[45], [47] The percentage of cells with positive FRET signal were quantified. Each condition was analyzed in quadruplicate. […]
To test RI‐AG03 efficacy in mammalian cells, we utilized a fluorescence resonance energy transfer (FRET) biosensor HEK293 cell line that stably expresses the Tau repeat domain (RD) with the P301S mutation fused to mCer and mClo. These cells[45] or prior generations[71] have been used extensively to quantify Tau seeding activity and measure intracellular aggregation.[71] […] Seeded aggregation was quantified by the percentage of FRET positivity.

[3] = target: T2, VQIVYK (Homo sapiens, UniProt P10636); assay: ThT fluorescence, aggregation of VQIVYK peptide; format: biochemical; details: ThT end-point 24 h; 20 µM VQIVYK, 20 µM RI‐AG03 (equimolar), 5 µM heparin, pH 7.4; alone or combined with VQIINK
T2 construct: ^306VQIVYK^311 hexapeptide (motif found in all six isoforms)
Method: as §1
FIGURE 3 Lead peptide RI‐AG03 dose‐response and target specificity. […] (C) Concentration‐dependent inhibition of by Tau^Δ1‐250 by RI‐AG03. […] (E) Concentration‐dependent inhibition of by Tau^2N4R by RI‐AG03. […] (F) log10 scatter graph of Tau^2N4R inhibition by RI‐AG03 employing a curve fitting algorithm to calculate the IC50 at 5 µM. Experiments were conducted in triplicate and error bars were reported as standard deviation. One factor repeated measures ANOVA + Tukey post hoc statistical analysis: p > 0.05, *p ≤ 0.05, **p ≤ 0.01, ***p ≤ 0.001.

[4] = target: T1, Tau^Δ1‐250; assay: Congo-red staining of Tau^Δ1‐250 fibrils; format: biochemical; details: Tau^Δ1‐250 incubated in the presence of RI‐AG03 (Figure S11)
Method: Tau filament formation is expected to coincide with a reduction in disordered structure and an increase in β‐sheet content, even as the intermediary on‐pathway oligomers form.[67] […] However, the off‐pathway Tau aggregates that we have previously described have reduced β‐sheet content.[69] To study the β‐sheet content of the large amorphous aggregates formed in the presence of RI‐AG03, samples were analyzed using time‐resolved circular dichroism (CD) to investigate spectra changes indicative of secondary structure in the presence of RI‐AG03 over 5 h (Tau^Δ1‐250 aggregation plateaus at ∼5 h) (Figure 4E). The negative transition at 195 nm is characteristic of random coil structures being present within the Tau^Δ ^1‐250 (blue). […] Although challenging to deconvolute the increase in the negative ellipticity between ∼205 and 235 nm is consistent with the appearance of secondary structural elements including β‐strands. […] This reduction in β‐sheet content is corroborated by congo‐red staining, where the strong apple‐green birefringence observed for the Tau^Δ1‐250 fibrils was eliminated when the Tau^Δ1‐250 was incubated in the presence of RI‐AG03 (Figure S11).

T1 sequence (P10636 568-758, stated change not applied): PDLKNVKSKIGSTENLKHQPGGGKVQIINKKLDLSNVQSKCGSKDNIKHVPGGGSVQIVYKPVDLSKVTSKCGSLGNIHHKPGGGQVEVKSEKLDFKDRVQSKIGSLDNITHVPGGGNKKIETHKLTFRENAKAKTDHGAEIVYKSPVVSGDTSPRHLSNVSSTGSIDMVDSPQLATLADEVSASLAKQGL

**Q.** With `CC[C@@H](C)[C@@H](NC(=O)[C@@H](CCCCNC(C)=O)NC(=O)[C@@H](Cc1ccc(O)cc1)NC(=O)[C@@H](CCCCN)NC(=O)[C@H]1CCCN1C(=O)CNC(=O)[C@@H](CCCNC(=N)N)NC(=O)[C@@H](CCCNC(=N)N)NC(=O)[C@@H](CCCNC(=N)N)NC(=O)[C@@H](CCCNC(=N)N)NC(=O)[C@@H](CCCNC(=N)N)NC(=O)[C@@H](CCCNC(=N)N)NC(=O)[C@@H](CCCNC(=N)N)NC(=O)[C@@H](CCCNC(=N)N)NC(C)=O)C(=O)N[C@H](CCC(N)=O)C(=O)N[C@@H](C(=O)NCC(=O)N[C@H](CCCNC(=N)N)C(N)=O)C(C)C` [RI‐AG03] (Ac-[dR][dR][dR][dR][dR][dR][dR][dR]G[dP][dK][dY][dK](Ac)[dI][dQ][dV]G[dR]-NH2) as the compound, how does the IC50 [1] read?
**A.** The IC50 was 7.83 µM.

**Q.** And the “inhibition of Tau^Δ1‐250 aggregation” value ([1]; ThT end-point after 24 h, 37°C, 20 µM Tau^Δ1‐250, 20 µM peptide (equimolar), 5 µM heparin, 30 mM Tris, 1 mM DTT, 15 µM ThT, pH 7.4, triplicate)?
**A.** Its value is ~94%.

**Q.** What about the “effect when added during the growth phase of Tau^Δ1‐250 aggregation” value ([1]; ThT kinetics 12 h, 20 µM Tau^Δ1‐250, 20 µM RI‐AG03 added 1 h after aggregation was initiated) of the same compound?
**A.** The value was “halted any further aggregation”.

**Q.** And the “concentrations with peptide‐induced toxicity (decrease in FRET positivity)” value ([2]; biosensor cells, fibrils preincubated with 0–500 µM peptide, Figure 5C)?
**A.** Its value is “above 100 µM”.

**Q.** And the “aggregates (green puncta) in biosensor cells by fluorescence microscopy” value ([2]; preformed fibrils incubated with 30 µM peptide, compared with scramble peptide)?
**A.** The value was “fewer aggregates”.

**Q.** What about the “effect on aggregation of VQIVYK peptide” value [3] of the same compound?
**A.** Its value is “dramatically reduced”.

**Q.** And the “apple‐green birefringence of Tau^Δ1‐250 fibrils (congo‐red)” value [4]?
**A.** The value was “eliminated”.
